Source: publication PMC11892714 (OTA International, 2025)

Experiment: Vancomycin pharmacokinetics, serum concentration after IO vs IV delivery
Format: in vivo, New Zealand White rabbits
Details: rabbit, samples T0-T6, LC-MS/MS (Fig. 7A)

CN[C@H](CC(C)C)C(=O)N[C@H]1C(=O)N[C@@H](CC(N)=O)C(=O)N[C@H]2C(=O)N[C@H]3C(=O)N[C@H](C(=O)N[C@H](C(=O)O)c4cc(O)cc(O)c4-c4cc3ccc4O)[C@H](O)c3ccc(c(Cl)c3)Oc3cc2cc(c3O[C@@H]2O[C@H](CO)[C@@H](O)[C@H](O)[C@H]2O[C@H]2C[C@](C)(N)[C@H](O)[C@H](C)O2)Oc2ccc(cc2Cl)[C@H]1O [vancomycin]
Serum vancomycin profile across time, IO delivery (30 mg/kg IO over 30 min): slight peak but remained at relatively consistent serum levels across time points | Serum vancomycin profile across time, IV delivery (30 mg/kg IV over 30 min): high systemic peak soon after bolus delivery with a steady decline across time
